Assay results as given in ChEMBL document CHEMBL5550165, “Novel quinoxaline analogs as telomeric G-quadruplex ligands exert antitumor effects related to enhanced immunomodulation” (Eur J Med Chem, 2024).
Active and inactive are the calls of the source. The rule behind the calls is not given here.

Experiments:
[1] = Cytotoxicity against human MCF-10A cells incubated for 24 hrs by CCK-8 reagent based spectrophotometric analysis; assay type: toxicity, cell-based
4T1 [2] = experiment: Antitumor immunity against mouse 4T1 cells implanted in BALB/c mouse assessed as increase in serum IL-6 level at 10 mg/kg,ip every other day for 14 days by ELISA; assay type: functional, organism-based; conditions: time 14.0 day
4T1 [3] = experiment: Antitumor immunity against mouse 4T1 cells implanted in BALB/c mouse assessed as increase in proportion of CD4+ T cells in tumor at 10 mg/kg,ip every other day for 14 days by immunohistochemistry staining based analysis; assay type: functional, organism-based; conditions: time 14.0 day
4T1 [4] = experiment: Cytotoxicity against mouse 4T1 cells incubated for 24 hrs by CCK-8 reagent based spectrophotometric analysis; assay type: functional, cell-based; conditions: 4T1, 24 h
4T1 [5] = experiment: Antitumor activity against mouse 4T1 cells implanted in BALB/c mouse assessed as upregulation of gamma-H2AX expression in tumor at 10 mg/kg,ip every other day for 14 days by immunohistochemistry; assay type: functional, organism-based; conditions: time 14.0 day
Quadruplex DNA [6] = experiment: Binding affinity to c-MYC G-quadruplex telomeric DNA (unknown origin) assessed as […] in melting temperature by FRET assay; assay type: nucleic-acid assay
MDA-MB-231 [7] = experiment: Induction of cell cycle arrest in human MDA-MB-231 cells assessed as accumulation of cells at G2/M phase at 1 uM incubated for 24 hrs by RNase/PI staining based flow cytometry (reference value: 11.3 %); assay type: functional
4T1 [8] = experiment: Antitumor immunity against mouse 4T1 cells implanted in BALB/c mouse assessed as increase in serum TNF-alpha level at 10 mg/kg,ip every other day for 14 days by ELISA; assay type: functional, organism-based; conditions: time 14.0 day
MDA-MB-231 [9] = experiment: Induction of DNA damage in human MDA-MB-231 cells assessed as increase in multi-nuclei frequency in aberrant cell at 4 uM incubated for 24 hrs by DAPI staining based microscopic analysis; assay type: functional
MDA-MB-231 [10] = experiment: Induction of cell cycle arrest in human MDA-MB-231 cells assessed as accumulation of cells at G0/G1 phase at 1 uM incubated for 24 hrs by RNase/PI staining based flow cytometry (reference value: 82.3 %); assay type: functional
4T1 [11] = experiment: Antitumor activity against mouse 4T1 cells implanted in BALB/c mouse assessed as increase in survival time at 10 mg/kg,ip every other day for 14 days; assay type: functional, organism-based; conditions: time 14.0 day
4T1 [12] = experiment: Antitumor immunity against mouse 4T1 cells implanted in BALB/c mouse assessed as increase in proportion of CD8+ T cells in tumor at 10 mg/kg,ip every other day for 14 days by immunohistochemistry staining based analysis; assay type: functional, organism-based; conditions: time 14.0 day
MDA-MB-231 [13] = experiment: Antiproliferative activity against human MDA-MB-231 cells assessed as reduction in tumor spheroid volume at 20 to 40 uM incubated for 7 days by propidium iodide staining based fluorescence analysis; assay type: functional, cell-based; conditions: dose 20-40 µM, time 7.0 day
DNA = experiment: Binding affinity to Mitochondrial DNA (unknown origin) assessed as increase in melting temperature by CD spectrophotometric analysis; assay type: nucleic-acid assay
[14] = Drug uptake in human MDA-MB-231 cells assessed as increase in fluorescence intensity in tumor spheroid incubated for 24 hrs; assay type: ADME, cell-based; conditions: mda-mb-231, 24 h
Quadruplex DNA [15] = experiment: Binding affinity to G-quadruplex telomeric DNA (unknown origin) assessed as melting temperature by CD spectrophotometric analysis; assay type: nucleic-acid assay
MDA-MB-231 [16] = experiment: Induction of DNA damage in human MDA-MB-231 cells assessed as increase in colocalization of TRF2 and gamma-H2AX formation foci in nucleus at 3 uM incubated for 24 hrs by DAPI staining based immunofluorescence analysis; assay type: functional, cell-based
4T1 [17] = experiment: Antitumor immunity against mouse 4T1 cells implanted in BALB/c mouse assessed as increase in proportion of CD4+ T cells in spleen at 10 mg/kg,ip every other day for 14 days by flow cytometry; assay type: functional, organism-based; conditions: time 14.0 day
MDA-MB-231 [18] = experiment: Induction of DNA damage in human MDA-MB-231 cells assessed as increase in gamma-H2AX level in nucleus at 3 uM incubated for 24 hrs by DAPI staining based immunofluorescence analysis; assay type: functional, cell-based
Quadruplex DNA [19] = experiment: Stabilization of G-quadruplex telomeric24 DNA (unknown origin) at 10 uM incubated for 40 mins by replication based ethidium bromide staining based gel electrophoresis; assay type: nucleic-acid assay
MDA-MB-231 [20] = experiment: Induction of DNA damage in human MDA-MB-231 cells assessed as upregulation of gamma-H2AX expression at 1 to 4 uM incubated for 24 hrs by Western blot analysis; assay type: functional, cell-based; conditions: dose 1-4 µM
Quadruplex DNA [21] = experiment: Stabilization of G-quadruplex telomeric DNA in human MDA-MB-231 cells assessed as increase in BG4-positive cell nuclei at 3 uM incubated for 24 hrs by DAPI staining based immunofluorescence microscopic analysis
MDA-MB-231 [22] = experiment: Induction of DNA damage in human MDA-MB-231 cells assessed as upregulation of RPA32 expression at 1 to 4 uM incubated for 24 hrs by Western blot analysis; assay type: functional, cell-based; conditions: dose 1-4 µM
MDA-MB-231 [23] = experiment: Induction of DNA damage in human MDA-MB-231 cells assessed as increase in tail moment at 4 uM incubated for 24 hrs by electrophoresis assay; assay type: functional, cell-based
4T1 [24] = experiment: Antitumor immunity against mouse 4T1 cells implanted in BALB/c mouse assessed as increase in proportion of CD4+ T cells in tumor at 10 mg/kg,ip every other day for 14 days by flow cytometry; assay type: functional, organism-based; conditions: time 14.0 day
MDA-MB-231 [25] = experiment: Inhibition of colony formation in human MDA-MB-231 cells at 0.25 uM incubated for 8 days by crystal violet staining based analysis; assay type: functional, cell-based; conditions: time 8.0 day
MDA-MB-231 [26] = experiment: Induction of DNA damage in human MDA-MB-231 cells assessed as increase in micronuclei frequency in aberrant cell at 4 uM incubated for 24 hrs by DAPI staining based microscopic analysis; assay type: functional
Quadruplex DNA [27] = experiment: Stabilization of G-quadruplex telomeric DNA in human MDA-MB-231 cells assessed as increase in colocalization of TRF2 and S9.6 formation foci at 3 uM incubated for 24 hrs by DAPI staining based immunofluorescence microscopic analysis; assay type: cell-based
4T1 [28] = experiment: Antitumor activity against mouse 4T1 cells implanted in BALB/c mouse assessed as upregulation of cleaved PARP expression in tumor at 10 mg/kg,ip every other day for 14 days by Western blot analysis; assay type: functional, organism-based; conditions: time 14.0 day
MDA-MB-231 [29] = experiment: Induction of cell cycle arrest in human MDA-MB-231 cells assessed as accumulation of cells at S phase at 1 uM incubated for 24 hrs by RNase/PI staining based flow cytometry (reference value: 6.3 %); assay type: functional
MDA-MB-231 [30] = experiment: Induction of immunogenic cell death in human MDA-MB-231 cells assessed as increase in CRT expression incubated for 24 hrs by immunofluorescence confocal laser scanning microscopic analysis; assay type: functional, cell-based
MDA-MB-231 [31] = experiment: Induction of apoptosis in human MDA-MB-231 cells assessed as increase in Annexin V-positive cells at 1 to 4 uM incubated for 24 hrs by Annexin V-633/PI staining based flow cytometry; assay type: functional, cell-based; conditions: dose 1-4 µM
MCF7 = experiment: Cytotoxicity against human MCF7 cells incubated for 24 hrs by CCK-8 reagent based spectrophotometric analysis; assay type: functional, cell-based; conditions: MCF7, 24 h
Quadruplex DNA [32] = experiment: Stabilization of G-quadruplex 5-FAM-telomeric24 DNA-TAMRA-3 (unknown origin) assessed as change in melting temperature incubated for 2 hrs by FRET assay; assay type: nucleic-acid assay
MDA-MB-231 [33] = experiment: Antiproliferative activity against human MDA-MB-231 cells assessed as reduction in tumor spheroid volume at 10 uM incubated for 7 days by propidium iodide staining based fluorescence analysis; assay type: functional, cell-based; conditions: time 7.0 day

SMILES: CN(C)CCN(C)c1ccc(-c2nc3ccc(C(F)(F)F)cc3nc2-c2ccc(N(C)CCN(C)C)cc2)cc1
- IC50 at 24 h [1]: 5.8 µM
- Activity (4T1 [2]): Active
- Activity (4T1 [3]): Active
- IC50 (4T1 [4]): 4.6 µM
- Activity (4T1 [5]): Active
- Activity (Quadruplex DNA [6]): Active
- Activity (MDA-MB-231 [7]): 11.4%
- Activity (4T1 [8]): Active
- Activity (MDA-MB-231 [9]): Active
- Activity (MDA-MB-231 [10]): 82.1%
- Activity (4T1 [11]): Active
- Activity (4T1 [12]): Active
- Activity (MDA-MB-231 [13]): Active
- Activity (DNA): Active
- Drug uptake [14]: Active
- Tm (Quadruplex DNA [15]): 66 °C
- Activity (MDA-MB-231 [16]): Active
- Activity (4T1 [17]): Active
- Activity (MDA-MB-231 [18]): Active
- Activity (Quadruplex DNA [19]): Active
- Activity (MDA-MB-231 [20]): Active
- Activity (Quadruplex DNA [21]): Active
- Activity (MDA-MB-231 [22]): Active
- Activity (MDA-MB-231 [23]): Active
- Activity (4T1 [24]): Active
- inhibition (MDA-MB-231 [25]): Active
- Activity (MDA-MB-231 [26]): Active
- Activity (Quadruplex DNA [27]): Active
- Activity (4T1 [28]): Active
- Activity (MDA-MB-231 [29]): 6.4%
- Activity (MDA-MB-231 [30]): Dose-Dependent Effect
- Activity (MDA-MB-231 [31]): Active
- IC50 (MCF7): 3.6 µM
- ΔTm (Quadruplex DNA [32]): 6.1 °C
- Activity (MDA-MB-231 [33]): inactive
